Measurements as given in PubChem BioAssay AID286 (DTP/NCI, 2004).
Where “and” joins values, the source holds several entries; their conditions need not be identical. Identical values can stand only once. Inconclusive results and toxic doses are left out. Starred links: 1 amine or outer side, 2 acyl side, 3 side chain; linkers in the order of their positions; H or OH if unused. Positions of bridges follow the written chain, without caps; N, C: chain ends. Non-standard residues stand in square brackets, D forms with d. Residues, ends and D or L forms follow the SMILES beside them. Chains are numbered I, II in the order given. ξ: configuration not given here. *: point of attachment. Quinaldoyl(3-OH,6-OMe) = COc1ccc2nc(C(=O)*)c(O)cc2c1; X2 = CC(=O)OC1CC=NN([*:1])C1C(=O)[*:2]; ξNMeVal(3-OH) = CNC(C(=O)O)C(C)(C)O; X3 = O=C(C1CCCNN1[*:1])[*:2]; Sar = CNCC(=O)O

Tested on: BDF1 mice, M5076 sarcoma ip, median survival T/C
Experiment: NCI In Vivo Anticancer Drug Screen. Data for tumor model Sarcoma M5076 (intraperitoneal) in B6D2F1 (BDF1) mice
Details: endpoint: median survival time, higher = longer survival
Procedure: The antitumor activity of compounds was measured in mice bearing transplantable tumors. Survival or tumor size were measured and the results are expressed as the measurement made in the treated group (T) divided by the measurement made in the vehicle treated control group (C). The tumor model used in this assay is Sarcoma M5076 (intraperitoneal) in B6D2F1 (BDF1) mice

[1] = dose: 50.0 mg/kg/injection, schedule: Q04DX004 (ip), vehicle: saline with Tween-80
[2] = dose: 100.0 mg/kg/injection, schedule: Q04DX004 (ip), vehicle: saline with Tween-80

## CN(C)c1nc(N(C)C)nc(N(C)C)n1
dose: 40.0 mg/kg/injection, schedule: Q04DX005 (ip), vehicle: Klucel (hydroxypropylcellulose) (HPC)
  T/C: 160 % of control
dose: 80.0 mg/kg/injection, schedule: Q04DX005 (ip), vehicle: Klucel (hydroxypropylcellulose) (HPC)
  T/C: 188 % of control
dose: 100.0 mg/kg/injection, schedule: Q04DX005 (ip), vehicle: Klucel (hydroxypropylcellulose) (HPC)
  T/C: 112 % of control
dose: 160.0 mg/kg/injection, schedule: Q04DX005 (ip), vehicle: Klucel (hydroxypropylcellulose) (HPC)
  T/C: 104 % of control
dose: 200.0 mg/kg/injection, schedule: Q04DX005 (ip), vehicle: Klucel (hydroxypropylcellulose) (HPC)
  T/C: 119 % of control
dose: 400.0 mg/kg/injection, schedule: Q04DX005 (ip), vehicle: Klucel (hydroxypropylcellulose) (HPC)
  T/C: 123 % of control

## Nc1n[nH]c2ccccc12
dose: 50.0 mg/kg/injection, schedule: Q04DX004 (ip), vehicle: acid diluted with saline
  T/C: 112 % of control
dose: 100.0 mg/kg/injection, schedule: Q04DX004 (ip), vehicle: acid diluted with saline
  T/C: 113 % of control
dose: 200.0 mg/kg/injection, schedule: Q04DX004 (ip), vehicle: acid diluted with saline
  T/C: 112 % of control

## CCC/C=C/C=C/C(=O)OC1/C(=C/C(=O)OC)CC2CC(C(C)O)OC(=O)CC(O)CC3CC(OC(C)=O)C(C)(C)C(O)(CC4C/C(=C/C(=O)OC)CC(/C=C/C(C)(C)C1(O)O2)O4)O3 (configuration not stated)
dose: 20.0 micrograms/kg/injection, schedule: Q01DX009 (ip), vehicle: saline + Tween-80 + alcohol
  T/C: 158 % of control
dose: 40.0 micrograms/kg/injection, schedule: Q01DX009 (ip), vehicle: saline + Tween-80 + alcohol
  T/C: 168 % of control
dose: 80.0 micrograms/kg/injection, schedule: Q01DX009 (ip), vehicle: saline + Tween-80 + alcohol
  T/C: 160 % of control

## C=CCOc1cc2c(cc1C(C)c1ccc(OC)cc1)OCO2 (configuration not stated)
dose: 25.0 mg/kg/injection, schedule: Q04DX004 (ip), vehicle: Klucel (hydroxypropylcellulose) (HPC)
  T/C: 104 % of control
dose: 50.0 mg/kg/injection, schedule: Q04DX004 (ip), vehicle: Klucel (hydroxypropylcellulose) (HPC)
  T/C: 118 % of control
dose: 100.0 mg/kg/injection, schedule: Q04DX004 (ip), vehicle: Klucel (hydroxypropylcellulose) (HPC)
  T/C: 102 % of control
dose: 200.0 mg/kg/injection, schedule: Q04DX004 (ip), vehicle: Klucel (hydroxypropylcellulose) (HPC)
  T/C: 118 % of control
dose: 400.0 mg/kg/injection, schedule: Q04DX004 (ip), vehicle: Klucel (hydroxypropylcellulose) (HPC)
  T/C: 214 % of control

## O=C1c2ccccc2C(Cl)(c2ccc(Cl)cc2)c2ccc(Cl)cc21 (configuration not stated)
[1]
  T/C: 116 % of control
[2]
  T/C: 107 % of control
dose: 200.0 mg/kg/injection, schedule: Q04DX004 (ip), vehicle: saline with Tween-80
  T/C: 108 % of control
dose: 400.0 mg/kg/injection, schedule: Q04DX004 (ip), vehicle: saline with Tween-80
  T/C: 100 % of control

## CS(C)(O)NC(N)=O
dose: 50.0 mg/kg/injection, schedule: Q04DX004 (ip), vehicle: water
  T/C: 104 % of control
dose: 100.0 mg/kg/injection, schedule: Q04DX004 (ip), vehicle: water
  T/C: 102 % of control
dose: 200.0 mg/kg/injection, schedule: Q04DX004 (ip), vehicle: water
  T/C: 104 % of control
dose: 400.0 mg/kg/injection, schedule: Q04DX004 (ip), vehicle: water
  T/C: 100 % of control
dose: 800.0 mg/kg/injection, schedule: Q04DX004 (ip), vehicle: water
  T/C: 107 % of control

## COc1cc2cc3c(c(O)c2c(O)c1/C=C/C(C)C)C(=O)CC(C)(OC(C)=O)C3 (configuration not stated)
dose: 0.31 mg/kg/injection, schedule: Q01DX009 (ip), vehicle: Klucel (hydroxypropylcellulose) (HPC)
  T/C: 111 % of control
dose: 0.63 mg/kg/injection, schedule: Q01DX009 (ip), vehicle: Klucel (hydroxypropylcellulose) (HPC)
  T/C: 108 % of control and 115 % of control
dose: 1.25 mg/kg/injection, schedule: Q01DX009 (ip), vehicle: Klucel (hydroxypropylcellulose) (HPC)
  T/C: 111 % of control and 119 % of control

## O=Cc1c(O)c2ccccc2[nH]c1=O
dose: 25.0 mg/kg/injection, schedule: Q04DX004 (ip), vehicle: saline with Tween-80
  T/C: 98 % of control
[1]
  T/C: 124 % of control
[2]
  T/C: 101 % of control

## COc1cc(NCc2ccc3nc(N)nc(N)c3c2C)cc(OC)c1OC
dose: 10.0 mg/kg/injection, schedule: Q01DX009 (ip), vehicle: Klucel (hydroxypropylcellulose) (HPC)
  T/C: 173 % of control
dose: 15.0 mg/kg/injection, schedule: Q04DX005 (ip), vehicle: Klucel (hydroxypropylcellulose) (HPC)
  T/C: 168 % of control
dose: 20.0 mg/kg/injection, schedule: Q01DX009 (ip), vehicle: Klucel (hydroxypropylcellulose) (HPC)
  T/C: 173 % of control
dose: 30.0 mg/kg/injection, schedule: Q04DX005 (ip), vehicle: Klucel (hydroxypropylcellulose) (HPC)
  T/C: 171 % of control
dose: 60.0 mg/kg/injection, schedule: Q04DX005 (ip), vehicle: Klucel (hydroxypropylcellulose) (HPC)
  T/C: 206 % of control

## CNc1nc(N(C)C)nc(N(C)C)n1
dose: 50.0 mg/kg/injection, schedule: Q04DX004 (ip), vehicle: saline
  T/C: 114 % of control
dose: 100.0 mg/kg/injection, schedule: Q04DX004 (ip), vehicle: saline
  T/C: 119 % of control
dose: 200.0 mg/kg/injection, schedule: Q04DX004 (ip), vehicle: saline
  T/C: 123 % of control

## O=C(O)C1(C(=O)O)CCC1.[NH2-].[NH2-].[Pt+2]
dose: 15.6 mg/kg/injection, schedule: Q04DX005 (ip), vehicle: water
  T/C: 186 % of control
dose: 25.92 mg/kg/injection, schedule: Q04DX005 (ip), vehicle: water
  T/C: 182 % of control
dose: 43.2 mg/kg/injection, schedule: Q04DX005 (ip), vehicle: water
  T/C: 194 % of control
dose: 72.0 mg/kg/injection, schedule: Q04DX005 (ip), vehicle: water
  T/C: 220 % of control
dose: 120.0 mg/kg/injection, schedule: Q04DX005 (ip), vehicle: water
  T/C: 275 % of control

## C=C1C(O)C2OC3(CCC(/C=C/C(C)C4CC5(C)SC5C5(OC(CC(C)(O)C(=O)O)CCC5O)O4)O3)CCC2OC1C(O)CC(C)C1OC2(CCCCO2)CCC1C (configuration not stated)
dose: 0.5 micrograms/kg/injection, schedule: Q01DX009 (ip), vehicle: saline + alcohol
  T/C: 108 % of control
dose: 1.0 micrograms/kg/injection, schedule: Q01DX009 (ip), vehicle: saline + alcohol
  T/C: 111 % of control
dose: 2.0 micrograms/kg/injection, schedule: Q01DX009 (ip), vehicle: saline + alcohol
  T/C: 120 % of control
dose: 2.5 micrograms/kg/injection, schedule: Q01DX009 (ip), vehicle: saline + alcohol
  T/C: 155 % of control

## COc1ccc2nc(C(=O)NC3COC(=O)C(C(C)(C)O)N(C)C(=O)CN(C)C(=O)CNC(=O)C4CCCNN4C(=O)C(NC(=O)c4nc5ccc(OC)cc5cc4O)COC(=O)C(C(C)(C)O)N(C)C(=O)CN(C)C(=O)CNC(=O)C4C(OC(C)=O)CC=NN4C3=O)c(O)cc2c1 (configuration not stated) (I: {Quinaldoyl(3-OH,6-OMe)}-S[X2]G[Sar][ξNMeVal(3-OH)] / II: {Quinaldoyl(3-OH,6-OMe)}-S[X3]G[Sar][ξNMeVal(3-OH)]; ester I:1-II:C, I:C-II:1; configuration not given here)
dose: 10.0 micrograms/kg/injection, schedule: Q01DX009 (ip), vehicle: DMSO
  T/C: 155 % of control
dose: 12.5 micrograms/kg/injection, schedule: Q01DX009 (ip), vehicle: DMSO
  T/C: 157 % of control
dose: 20.0 micrograms/kg/injection, schedule: Q01DX009 (ip), vehicle: DMSO
  T/C: 190 % of control
dose: 25.0 micrograms/kg/injection, schedule: Q01DX009 (ip), vehicle: DMSO
  T/C: 170 % of control
dose: 50.0 micrograms/kg/injection, schedule: Q01DX009 (ip), vehicle: DMSO
  T/C: 179 % of control

## CC1CCC(NC(=O)N(CCCl)N=O)CC1 (configuration not stated)
dose: 3.0 mg/kg/injection, schedule: Q04DX004 (ip), vehicle: Klucel (hydroxypropylcellulose) (HPC)
  T/C: 216 % of control and 163 % of control
dose: 6.0 mg/kg/injection, schedule: Q04DX004 (ip), vehicle: Klucel (hydroxypropylcellulose) (HPC)
  T/C: 189 % of control and 193 % of control and 216 % of control
dose: 12.0 mg/kg/injection, schedule: Q04DX004 (ip), vehicle: Klucel (hydroxypropylcellulose) (HPC)
  T/C: 216 % of control and 233 % of control and 320 % of control

## CCC/C=C/C=C/C(=O)OC1C(C)C2(O)C3C=C(C)C(=O)C3CC(COC(C)=O)=CC2C2C(C)(C)C12OC(=O)C(C)C (configuration not stated)
dose: 0.38 mg/kg/injection, schedule: Q01DX009 (ip), vehicle: saline + alcohol
  T/C: 110 % of control
dose: 0.75 mg/kg/injection, schedule: Q01DX009 (ip), vehicle: saline + alcohol
  T/C: 103 % of control
dose: 1.5 mg/kg/injection, schedule: Q01DX009 (ip), vehicle: saline + alcohol
  T/C: 110 % of control
dose: 3.0 mg/kg/injection, schedule: Q01DX009 (ip), vehicle: saline + alcohol
  T/C: 114 % of control
dose: 6.0 mg/kg/injection, schedule: Q01DX009 (ip), vehicle: saline + alcohol
  T/C: 115 % of control
